Test results from PMC7822874, “Chemoprotective antimalarials identified through quantitative high-throughput screening of Plasmodium blood and liver stage parasites” (Scientific Reports, 2021).
Several values for one entry are separate records, joined by “and”; a condition that tells them apart may be missing. Equal values may be shown once. Read-outs that look alike come from different tables or passages of the source.

Tests used:
[1] = system: P. falciparum Dd2 (clone B2) asexual blood stage parasites; experiment: P. falciparum Dd2 asexual blood stage SYBR Green-I 72 h proliferation assay (qHTS); assay type: cell-based, Plasmodium falciparum; settings: Plasmodium falciparum
[2] = system: P. falciparum Dd2 Cytb F123L; experiment: SYBR Green ABS proliferation assay, NCGC00473217 selected clone G08; assay type: cell-based, Plasmodium falciparum; settings: for AC50: Plasmodium falciparum
How it was run: (§1)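 Proliferation of cytb-mutant Dd2 clones was measured by SYBR Green-I fluorescence at 72 h, normalized to controls.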

[3] = system: T1, Plasmodium falciparum Dd2-attB (parental line), asexual blood stages; experiment: microbe, parasite or virus in culture; parameters: replicate k of 3 (each line is one of three independent assays; the three lines of one compound and parasite line follow each other); settings: 72 h; n = 1
T1 construct: Dd2-attB, the isogenic parental line
How it was run: (§2)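 Both lines were tested side by side with selected compounds, repeated in three independent assays. Differences between parental and ScDHODH-expressing parasites were then assessed with a two-sided Student's t-test.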

[4] = system: P. falciparum Dd2 Cytb A122D; experiment: SYBR Green ABS proliferation assay, NCGC00473217 selected clone F12; assay type: cell-based, Plasmodium falciparum; settings: for AC50: Plasmodium falciparum
How it was run: as §1

[5] = system: T2, Plasmodium falciparum Dd2-attB-ScDHODH (transgenic line expressing yeast DHODH), asexual blood stages; experiment: organism not typed; parameters: replicate k of 3 (each line is one of three independent assays; the three lines of one compound and parasite line follow each other); settings: 72 h, n = 1
T2 construct: Dd2-attB-ScDHODH, the transgenic line that expresses yeast DHODH
How it was run: as §2

[6] = system: P. falciparum Dd2 Cytb V259L; experiment: SYBR Green ABS proliferation assay, NCGC00473217 selected clone F06; assay type: cell-based, Plasmodium falciparum; settings: for AC50: Plasmodium falciparum
How it was run: as §1

[7] = system: P. falciparum Dd2 Cytb G131S; experiment: SYBR Green ABS proliferation assay, NCGC00374598 selected clone C11; assay type: cell-based, Plasmodium falciparum; settings: for AC50: Plasmodium falciparum
How it was run: as §1

[8] = DD2, Dd2 parental, Hill fit, averaged from three independent replicates, top concentration 29 µM, read-out: Average AC50 (Log[M]), Dd2 (converted)
[9] = DD2, […], averaged from three independent replicates, top concentration 29 µM, read-out: Average AC50 (Log[M]), NCGC00473217 clone G08 (Cytb F123L) (converted)
[10] = DD2, […], averaged from three independent replicates, top concentration 29 µM, read-out: Average AC50 (Log[M]), NCGC00473217 clone F12 (Cytb A122D) (converted)
[11] = DD2, […], averaged from three independent replicates, top concentration 29 µM, read-out: Average AC50 (Log[M]), NCGC00473217 clone F06 (Cytb V259L) (converted)
[12] = DD2, […], averaged from three independent replicates, top concentration 29 µM, read-out: Average AC50 (Log[M]), NCGC00374598 clone C11 (Cytb G131S) (converted)

SMILES	AC50 [1, 8] [M]	AC50 [2, 9] [M]	AC50 [4, 10] [M]	AC50 [6, 11] [M]	AC50 [7, 12] [M]	other results
CCCN1C(CC(C)C)=N[S+](=O)([O-])c2cc(NC(=O)c3ccco3)ccc21 [NCGC00473219-02]	3.17e-06	3.17e-06	3.56e-06	5.22e-06	3.17e-06	Individual replicates / Log AC50 (M) [3]: -6.2986 Log AC50 (M) and -5.9986 Log AC50 (M) and -6.0986 Log AC50 (M); Individual replicates / Log AC50 (M) [5]: -5.7486 Log AC50 (M) and -5.5986 Log AC50 (M) and -5.8986 Log AC50 (M)
CCCN1C(CC(C)C)=N[S+](=O)([O-])c2cc(NC(=O)c3sccc3F)ccc21 [NCGC00523542-01]	1.59e-06	7.52e-06	1.31e-06	5.43e-06	1.78e-06	
CCCN1C(CC(C)C)=N[S+](=O)([O-])c2cc(NC(=O)c3ccc(-c4ccccc4)s3)ccc21 [NCGC00521113-01]	5.02e-06	2.24e-06	5.02e-06	1.42e-06	1.68e-06	
CCCN1C(CC(C)C)=N[S+](=O)([O-])c2cc(NC(=O)c3c(F)cccc3F)ccc21 [NCGC00531536-01]	1.59e-05	5.64e-06	1e-05	1.22e-05	1.22e-05	
CCCN1C(CC(C)C)=N[S+](=O)([O-])c2cc(NC(=O)c3ccccc3)ccc21 [NCGC00510420-02]	1e-06	2.12e-08	1.06e-06	1.12e-06	4.23e-07	
CCCN1C(CC(C)C)=N[S+](=O)([O-])c2cc(NC(=O)C3CCN(C)CC3)ccc21 [NCGC00521111-01]	2.08e-05	1.22e-05	3.77e-07	1.53e-05	1.17e-06	
CCCN1C(CC(C)C)=N[S+](=O)([O-])c2cc(NC(=O)c3ccc(Cl)c(Cl)c3)ccc21 [NCGC00531756-01]	2e-05	1.42e-05	8.93e-06	7.38e-06	5.97e-06	
CCCN1C(CC(C)C)=N[S+](=O)([O-])c2cc(NC(=O)c3cncnc3)ccc21 [NCGC00521134-01]	8.93e-06	4.48e-06	3.77e-06	1.59e-06	4.48e-06	
CCCN1C(CC(C)C)=N[S+](=O)([O-])c2cc(NC(=O)c3ccc(F)s3)ccc21 [NCGC00523537-01]	1.12e-07	3.85e-06	7.96e-07	8.93e-07	3.17e-07	
CCCN1C(CC(C)C)=N[S+](=O)([O-])c2cc(NC(=O)c3cc4cccnc4s3)ccc21 [NCGC00521132-01]	6.7e-06	8.93e-06	2.99e-06	2.99e-06	2.82e-06	
CCCN1C(CC(C)C)=N[S+](=O)([O-])c2cc(NC(=O)c3cc(F)cc(F)c3)ccc21 [NCGC00523544-01]	5.43e-06	1.08e-05	9.66e-06	7.1e-06	5.02e-06	
CCCN1C(CC(C)C)=N[S+](=O)([O-])c2cc(NC(=O)c3sccc3Cl)ccc21 [NCGC00531529-01]	2.24e-06	2.24e-06	6.1e-07	3.7e-06	5.86e-07	
CCCN1C(CC(C)C)=N[S+](=O)([O-])c2cc(NC(=O)c3sccc3C)ccc21 [NCGC00521035-01]	1.59e-06	9.46e-06	2.82e-06	6.84e-06	1.65e-06	
CCCN1C(CC(C)C)=N[S+](=O)([O-])c2cc(NC(=O)c3ncccn3)ccc21 [NCGC00521149-01]	1.12e-05	1.42e-05	1.04e-05	1.19e-05	1.59e-05	
CCCN1C(CC(C)C)=N[S+](=O)([O-])c2cc(NC(=O)c3cc4ccccc4s3)ccc21 [NCGC00521881-01]	1.65e-05	7.1e-06	4.48e-06	6.84e-06	1.42e-05	
O=C1C(O)=C([C@H]2CC[C@H](c3ccc(Cl)cc3)CC2)C(=O)c2ccccc21 [Atovaquone, atovaquone, reference compound]						AC50 ([1]; DD2, 72 h, SYBR Green 72 h, WT Dd2-B2, read-out: AC50 Log[M] ± SD, Dd2-B2 (parental line) (converted)): 3.31e-09 M; AC50 ([1]; DD2, Suppl Table 6, read-out: AC50 (mM), WT (Dd2-B2)): 3.3e-09 M; susceptibility of F123L mutant compared to parental line [2]: significantly more susceptible; AC50 ([2]; DD2, NCGC00473217 selected clone, read-out: AC50 Log[M] ± SD, Cytb F123L (converted)): 8.71e-10 M; AC50 ([2]; DD2, Suppl Table 6, read-out: AC50 (mM), Dd2 Cytb F123L): 9e-10 M; susceptibility of A122D mutant compared to parental line [4]: significantly more susceptible; AC50 ([4]; DD2, NCGC00473217 selected clone, read-out: AC50 Log[M] ± SD, Cytb A122D (converted)): 5.5e-10 M; AC50 ([4]; DD2, Suppl Table 6, read-out: AC50 (mM), Dd2 Cytb A122D): 5.5e-10 M; susceptibility of V259L variant compared to parental line [6]: significantly less susceptible; AC50 ([6]; DD2, NCGC00473217 selected clone, read-out: AC50 Log[M] ± SD, Cytb V259L (converted)): 2.34e-08 M; AC50 ([6]; DD2, Suppl Table 6, read-out: AC50 (mM), Dd2 Cytb V259L): 2.34e-08 M; potency in G131S mutant lines compared to parental line [7]: potency was not compromised; AC50 ([7]; DD2, NCGC00374598 selected clone, read-out: AC50 Log[M] ± SD, Cytb G131S (converted)): 2.19e-09 M; AC50 ([7]; DD2, Suppl Table 6, read-out: AC50 (mM), Dd2 Cytb G131S): 2.2e-09 M
CCCN1C(CC(C)C)=N[S+](=O)([O-])c2cc(NC(=O)c3ccon3)ccc21 [NCGC00521044-01]	1.26e-05	4.15e-07	9.46e-06	7.96e-06	6.7e-06	
CCCN1C(CC(C)C)=N[S+](=O)([O-])c2cc(NC(=O)Nc3ccccc3)ccc21 [NCGC00521878-01]	3.56e-06	1.59e-05	8.28e-06	1.04e-05	7.96e-06	
CCCN1C(CC(C)C)=N[S+](=O)([O-])c2cc(NC(=O)C34CC5CC(CC(C5)C3)C4)ccc21 [NCGC00521891-01]	3.56e-06	1e-06	1.89e-06	1.12e-06	2.82e-07	
CCCN1C(CC(C)C)=N[S+](=O)([O-])c2cc(NC(=O)c3c(Cl)cnn3C)ccc21 [NCGC00521056-01]	1.65e-05	1.22e-05	6.32e-06	8.61e-06	1.12e-05	
CCCN1C(CC(C)C)=N[S+](=O)([O-])c2cc(NC(=O)c3cc4ccncc4[nH]3)ccc21 [NCGC00521877-01]	2.24e-06	9.29e-07	7.67e-07	7.67e-07	1.42e-06	
